According to patent US20250179025A1, “CRYSTALLINE FORM OF DAROLUTAMIDE” (QUÍMICA SINTÉTICA, S.A., priority 2022, published 2025):
Values after ≈ are worked out from the molar mass of the structure shown. Read-outs that look alike come from different tables or passages of the source.

What was measured:
[1] = Determination of specific surface area (SSA), multi-point nitrogen adsorption BET; assay type: physicochemical; conditions: samples vacuum dried overnight at 45° C.; relative pressure 0.05-0.3 p/p0; eleven linear points
Text: The term “about” includes the range of experimental errors, which can normally occur performing a measurement, e.g. ±5% or ±2% or ±1%. Sometimes, such a range can lie within the experimental error, typical of standard methods used for the measurement and/or determination of a given value or range. Particularly, the measurement uncertainty for the Multi-Point B.E.T. specific surface area parameter is equal to 15% for a SSA value greater than 2 m^2/g, and 20% for a SSA less than 2 m^2/g. It is expressed as extended uncertainty obtained by multiplying standard uncertainty by the coverage factor k equal to 2, corresponding to confidence level of about 95%. The uncertainty is related to the method of analysis and obtained as percent value from the analysis of a representative group of samples in the measurement range of the instrument.
Unless otherwise indicated, the data relative to the peaks in the XRPD pattern are meant within the common uncertainty due to the instrument measurement, typically ±0.2 degrees 2θ, when collected with the Kα radiation of copper (λ=1.5419 Å) at room temperature. The present invention provides, in one aspect, a new form of N-[(2S)-1-[3-(3-chloro-4-cyanophenyl)-1H-pyrazol-1-yl]-propan-2-yl]-5-(1-hydroxyethyl)-1H-pyrazole-3-carboxamide (darolutamide), herein called nanocrystalline form or NC form or Form NC, said nanocrystalline form being characterized by having specific surface area (SSA) in the range from about 40 m^2/g to about 150 m^2/g, preferably from about 50 m^2/g to about 135 m^2/g, more preferably from about 60 m^2/g to about 135 m^2/g analyzed using the multi-point nitrogen adsorption technique based on the Brunauer, Emmett and Teller (BET) theory, for example using TriStar (II) automated gas adsorption analyzer, (Micromeritics, Inc.). The samples are suitably vacuum dried overnight at 45° C. The volumetric method can be used at the relative pressure range of 0.05-0.3 p/p0 as reported in the experimental part. Specific surface area is an important physical property for an active pharmaceutical ingredient. This parameter can greatly influence the process of preparation of drugs, such as filtration, purification, blending, tableting as well as the characteristics of the active pharmaceutical ingredient especially its dissolution rate and, in turn, its bio-availability as generally known in the art, e.g. from Kyung Rok Chu et al. Effect of particle size on the dissolution behaviours of poorly water-soluble drugs, Arch. Pharm. Res., 2012 July, 35(7), 1187-95, DOI 10.1007/s12272-012-0709-3.
The specific surface area was measured using the multi-point nitrogen adsorption technique based on the Brunauer, Emmett and Teller (BET) theory using TriStar (II) automated gas adsorption analyzer (Micromeritics, Inc.). All the samples were dried under vacuum overnight hours at 45° C. The volumetric method was applied at the relative pressure range 0.05-0.3 p/p^0, and the Specific Surface Area values were calculated in said pressure range using “Multi-Point BET” calculation method based on eleven linear points.

[2] = values reported in WO 2018/162793 or by its applicant in annex 1 during European prosecution; cited from earlier work
[3] = poorly soluble in the physiological pH range; cited from earlier work
[4] = Stability study at 40° C. and 75% RH (HPLC purity, XRPD); assay type: physicochemical; conditions: double PE bag in HDPE bottle, 1, 3, 6 and 12 months
Description: 5 aliquots of about 1 g of nanocrystalline form of present invention were stored at the following conditions wherein RH is referred to relative humidity: • 40° C. and 75% RH, double PE bag in HDPE bottle
The sample were analysed before the storage (To), after 1 month, 3 months, 6 months and 12 months using high performance chromatography (HPLC) method to control the purity and X-ray powder diffractogram (XRPD) to evaluate any change in crystalline form.

For `CC(O)c1cc(C(=O)N[C@@H](C)Cn2ccc(-c3ccc(C#N)c(Cl)c3)n2)[nH]n1` (single isomer, unassigned) [Example 3, darolutamide], the “Concentration of Darolutamide in saturated solution” value (“Concentration of Darolutamide” below) (0 min, pH 1) was 0 µg/mL, the “Concentration of Darolutamide” value (0 min, pH 7.5) was 0 µg/mL and the “Concentration of Darolutamide” value (5 min, pH 1) was 159 µg/mL. The “Concentration of Darolutamide” value (5 min, pH 7.5) was 162 µg/mL, the “Concentration of Darolutamide” value (10 min, pH 1) was 162 µg/mL and the “Concentration of Darolutamide” value (10 min, pH 7.5) was 155 µg/mL. The “Concentration of Darolutamide” value (60 min, pH 1) was 117 µg/mL, the “Concentration of Darolutamide” value (60 min, pH 7.5) was 132 µg/mL and the “Specific Surface Area (SSA) Multi-point BET” value (from here on “Specific Surface Area”) [1] was 134.0 m^2/g.

For `CC(O)c1cc(C(=O)N[C@@H](C)Cn2ccc(-c3ccc(C#N)c(Cl)c3)n2)[nH]n1` (single isomer, unassigned) [Example 4, darolutamide], the “Concentration of Darolutamide” value (0 min, pH 1) was 0 µg/mL, the “Concentration of Darolutamide” value (0 min, pH 7.5) was 0 µg/mL and the “Concentration of Darolutamide” value (5 min, pH 1) was 137 µg/mL. The “Concentration of Darolutamide” value (5 min, pH 7.5) was 157 µg/mL, the “Concentration of Darolutamide” value (10 min, pH 1) was 146 µg/mL and the “Concentration of Darolutamide” value (10 min, pH 7.5) was 149 µg/mL. The “Concentration of Darolutamide” value (60 min, pH 1) was 113 µg/mL, the “Concentration of Darolutamide” value (60 min, pH 7.5) was 109 µg/mL and the “Specific Surface Area” value [1] was 111.7 m^2/g.

In the case of `CC(O)c1cc(C(=O)N[C@@H](C)Cn2ccc(-c3ccc(C#N)c(Cl)c3)n2)[nH]n1` (single isomer, unassigned) [Example 5, darolutamide], the “Concentration of Darolutamide” value (0 min, pH 1) is reported as 0 µg/mL, the “Concentration of Darolutamide” value (0 min, pH 7.5) is reported as 0 µg/mL and the “Concentration of Darolutamide” value (5 min, pH 1) is reported as 117 µg/mL. The “Concentration of Darolutamide” value (5 min, pH 7.5) was 128 µg/mL, the “Concentration of Darolutamide” value (10 min, pH 1) was 126 µg/mL and the “Concentration of Darolutamide” value (10 min, pH 7.5) was 132 µg/mL. The “Concentration of Darolutamide” value (60 min, pH 1) was 113 µg/mL, the “Concentration of Darolutamide” value (60 min, pH 7.5) was 109 µg/mL and the “Specific Surface Area” value [1] was 66.8 m^2/g.

With `CC(O)c1cc(C(=O)N[C@@H](C)Cn2ccc(-c3ccc(C#N)c(Cl)c3)n2)[nH]n1` (stereo partly drawn) [Comparative example 1a, darolutamide] the “Concentration of Darolutamide” value (0 min, pH 1) was 0 µg/mL, the “Concentration of Darolutamide” value (0 min, pH 7.5) was 0 µg/mL and the “Concentration of Darolutamide” value (5 min, pH 1) was 20 µg/mL. For the same compound, the “Concentration of Darolutamide” value (5 min, pH 7.5) was 20 µg/mL, the “Concentration of Darolutamide” value (10 min, pH 1) was 20 µg/mL and the “Concentration of Darolutamide” value (10 min, pH 7.5) was 21 µg/mL. The “Concentration of Darolutamide” value (60 min, pH 1) was 17 µg/mL, the “Concentration of Darolutamide” value (60 min, pH 7.5) was 19 µg/mL and the “Specific Surface Area” value [1] was 26.6 m^2/g.

With `CC(O)c1cc(C(=O)N[C@@H](C)Cn2ccc(-c3ccc(C#N)c(Cl)c3)n2)[nH]n1` (stereo partly drawn) [Comparative example 1b, darolutamide] the “Specific Surface Area” value [1] was 29.5 m^2/g.

For `CC(O)c1cc(C(=O)N[C@@H](C)Cn2ccc(-c3ccc(C#N)c(Cl)c3)n2)[nH]n1` (stereo partly drawn) [Comparative example 1c, darolutamide], the “Specific Surface Area” value [1] was 34.4 m^2/g.

For `CC(O)c1cc(C(=O)N[C@@H](C)Cn2ccc(-c3ccc(C#N)c(Cl)c3)n2)[nH]n1` (stereo partly drawn) [Comparative example 2, darolutamide], the “Concentration of Darolutamide” value (0 min, pH 1) was 0 µg/mL, the “Concentration of Darolutamide” value (0 min, pH 7.5) was 0 µg/mL and the “Concentration of Darolutamide” value (5 min, pH 1) was 23 µg/mL. For the same compound, the “Concentration of Darolutamide” value (5 min, pH 7.5) was 22 µg/mL, the “Concentration of Darolutamide” value (10 min, pH 1) was 22 µg/mL and the “Concentration of Darolutamide” value (10 min, pH 7.5) was 18 µg/mL. The “Concentration of Darolutamide” value (60 min, pH 1) was 22 µg/mL, the “Concentration of Darolutamide” value (60 min, pH 7.5) was 21 µg/mL and the “Specific Surface Area” value [1] was 11.6 m^2/g.

For `CC(O)c1cc(C(=O)N[C@@H](C)Cn2ccc(-c3ccc(C#N)c(Cl)c3)n2)[nH]n1` (stereo partly drawn) [Crystalline rounded particles sample A unmilled] [darolutamide], the “Specific Surface Area” value [2] is listed as 13 m^2/g.

For `CC(O)c1cc(C(=O)N[C@@H](C)Cn2ccc(-c3ccc(C#N)c(Cl)c3)n2)[nH]n1` (stereo partly drawn) [Crystalline rounded particles sample B unmilled] [darolutamide], the “Specific Surface Area” value [2] is listed as 12 m^2/g.

In the case of `CC(O)c1cc(C(=O)N[C@@H](C)Cn2ccc(-c3ccc(C#N)c(Cl)c3)n2)[nH]n1` (stereo partly drawn) [Example 10, darolutamide], the “Specific Surface Area” value [1] is reported as 121.6 m^2/g.

With `CC(O)c1cc(C(=O)N[C@@H](C)Cn2ccc(-c3ccc(C#N)c(Cl)c3)n2)[nH]n1` (stereo partly drawn) [Example 11, darolutamide] the “Specific Surface Area” value [1] was 66.6 m^2/g.

For `CC(O)c1cc(C(=O)N[C@@H](C)Cn2ccc(-c3ccc(C#N)c(Cl)c3)n2)[nH]n1` (stereo partly drawn) [Example 23, darolutamide], the “Specific Surface Area” value [1] was 46.0 m^2/g.

With `CC(O)c1cc(C(=O)N[C@@H](C)Cn2ccc(-c3ccc(C#N)c(Cl)c3)n2)[nH]n1` (stereo partly drawn) [Example 24, darolutamide] the “Specific Surface Area” value [1] was 43.8 m^2/g.

In the case of `CC(O)c1cc(C(=O)N[C@@H](C)Cn2ccc(-c3ccc(C#N)c(Cl)c3)n2)[nH]n1` (stereo partly drawn) [Form I, darolutamide], the solubility concentration (5 min) is given as 20 µg/mL (≈ 50.1 µM) and the “Specific Surface Area” value [2] is given as 22.1 m^2/g.

`CC(O)c1cc(C(=O)N[C@@H](C)Cn2ccc(-c3ccc(C#N)c(Cl)c3)n2)[nH]n1` (stereo partly drawn) [crystalline rounded particles, darolutamide] showed a solubility concentration (5 min) of 20 µg/mL.

In the case of `CC(O)c1cc(C(=O)N[C@@H](C)Cn2ccc(-c3ccc(C#N)c(Cl)c3)n2)[nH]n1` (stereo partly drawn) [darolutamide, N-[(2S)-1-[3-(3-chloro-4-cyanophenyl)-1H-pyrazol-1-yl]-propan-2-yl]-5-(1-hydroxyethyl)-1H-pyrazole-3-carboxamide], the “Biopharmaceutics Classification System (BCS) class” value [3] is given as “class II”.

With `CC(O)c1cc(C(=O)N[C@@H](C)Cn2ccc(-c3ccc(C#N)c(Cl)c3)n2)[nH]n1` (stereo partly drawn) [nanocrystalline form, N-[(2S)-1-[3-(3-chloro-4-cyanophenyl)-1H-pyrazol-1-yl]-propan-2-yl]-5-(1-hydroxyethyl)-1H-pyrazole-3-carboxamide] the “chemical stability: purity by HPLC versus initial profile at T0” value [4] was “does not present a significant worsening of the purity”, the “physical stability: change in crystalline form by XRPD” value [4] was “no signs of transformation into a different crystalline form” and the solubility concentration (5 min) was 120 to 160 µg/mL.
